Converted amounts (≈) assume the structure as drawn.
Tested on: Candida albicans
Experiment: Minimum inhibitory concentration (MIC) testing, two-fold broth dilution in YPD, OD620
Assay type: cell-based
Details: C. albicans (ATCC) in YPD broth, two-fold dilutions starting at 200, 30° C., 18-24 hours
Description: Candida albicans, was purchased from ATCC. Thirty-five samples derived from KC Hesperaloe funifera, crude extracts and selected fractions (Table 1) were screened for the inhibition of growth of candida.
Minimum inhibitory concentration (MIC) testing was performed. Two-fold dilutions of sample prepared in C. albicans growth medium (Yeast Peptone Dextrose, YPD) broth, starting at 200 µg/mL. Then inoculum added and incubated at 30° C. for 18-24 hours, and OD620 was determined. T-test was used to determine statistically significant decreases in growth ([…]). Controls included Ketoconazole (50 µg/mL, Keto50), Neg (media with DMSO only, no inoculum), Pos (media with DMSO and inoculum), and YPD (broth only). In wells with decreased growth, wells were mixed by pipetting, and […] samples were plated on YPD agar to determine whether viable C. albicans were present, as an estimation of minimum fungicidal concentration (MFC).

## CC(=O)N1CCN(c2ccc(OCC3COC(Cn4ccnc4)(c4ccc(Cl)cc4Cl)O3)cc2)CC1 (stereo not shown) [Ketoconazole]
  MIC: 25 mg/mL (≈ 47 mM)

From US20240261319A1, “ANTI-FUNGAL COMPOSITION DERIVED FROM HESPERALOE” (Kimberly-Clark Worldwide, Inc., priority 2021, published 2024)
